# Experimental data reported in patent publication US20260285850A1, “SUBSTITUTED OXAZOLIDINONES AND IMIDAZOLINONES AS HERBICIDES” (FMC CORPORATION, priority 2023, published 2026).
# What was measured:
# Format in all cases: in vivo
# [1] = tested on: barnyardgrass (Echinochloa crus-galli); test: Test A preemergence soil spray, visual injury rating 0-100; conditions: 10 days, 0 = no effect, 100 = complete control
# Procedure, shortened: (§1)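 Plants were grown in a loam soil-sand blend and treated with test chemical in a non-phytotoxic solvent mixture containing surfactant, either sprayed on soil preemergence or applied postemergence to 2-10 cm plants. After 10 days in a greenhouse, injury was scored visually against untreated controls, 0 meaning no effect and 100 complete control.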
# [2] = tested on: blackgrass (Alopecurus myosuroides); test: as above; conditions: 10 days, 0 = no effect, 100 = complete control
# Procedure, shortened: as §1
# corn (Zea mays) [3] = test: as above; conditions: 10 days, 0 = no effect, 100 = complete control
# Procedure, shortened: as §1
# [4] = tested on: green foxtail (Setaria viridis); test: as above; conditions: 10 days, 0 = no effect, 100 = complete control
# Procedure, shortened: as §1
# kochia (Bassia scoparia) [5] = test: as above; conditions: 10 days, 0 = no effect, 100 = complete control
# Procedure, shortened: as §1
# [6] = tested on: oat, wild (wild oat, Avena fatua); test: as above; conditions: 10 days, 0 = no effect, 100 = complete control
# Procedure, shortened: as §1
# [7] = tested on: palmer (palmer amaranth, palmer pigweed, Amaranthus palmeri); test: as above; conditions: 10 days, 0 = no effect, 100 = complete control
# Procedure, shortened: as §1
# [8] = tested on: ragweed (common ragweed, Ambrosia artemisiifolia); test: as above; conditions: 10 days, 0 = no effect, 100 = complete control
# Procedure, shortened: as §1
# soybean (Glycine max) [9] = test: as above; conditions: 10 days, 0 = no effect, 100 = complete control
# Procedure, shortened: as §1
# [10] = tested on: wheat (Triticum aestivum); test: as above; conditions: 10 days, 0 = no effect, 100 = complete control
# Procedure, shortened: as §1
# [11] = tested on: barnyardgrass (Echinochloa crus-galli); test: Test A postemergence application, visual injury rating 0-100; conditions: 10 days
# Procedure, shortened: as §1
# [12] = tested on: blackgrass (Alopecurus myosuroides); test: as above; conditions: 10 days
# Procedure, shortened: as §1
# corn (Zea mays) [13] = test: as above; conditions: 10 days
# Procedure, shortened: as §1
# [14] = tested on: galium (catchweed bedstraw, Galium aparine); test: as above; conditions: 10 days
# Procedure, shortened: as §1
# [15] = tested on: green foxtail (Setaria viridis); test: as above; conditions: 10 days
# Procedure, shortened: as §1
# [16] = tested on: horseweed (Erigeron canadensis); test: as above; conditions: 10 days
# Procedure, shortened: as §1
# kochia (Bassia scoparia) [17] = test: as above; conditions: 10 days
# Procedure, shortened: as §1
# [18] = tested on: oat, wild (wild oat, Avena fatua); test: as above; conditions: 10 days
# Procedure, shortened: as §1
# [19] = tested on: palmer (palmer amaranth, palmer pigweed, Amaranthus palmeri); test: as above; conditions: 10 days
# Procedure, shortened: as §1
# [20] = tested on: ragweed (common ragweed, Ambrosia artemisiifolia); test: as above; conditions: 10 days
# Procedure, shortened: as §1
# [21] = tested on: ryegrass, Italian (italian ryegrass, Lolium multiflorum); test: as above; conditions: 10 days
# Procedure, shortened: as §1
# soybean (Glycine max) [22] = test: as above; conditions: 10 days
# Procedure, shortened: as §1
# [23] = tested on: wheat (Triticum aestivum); test: as above; conditions: 10 days
# Procedure, shortened: as §1
# [24] = tested on: barnyardgrass (Echinochloa crusgalli); test: Test B flooded paddy test, visual plant response rating 0-100; conditions: 250 g ai/ha, Flood, applied to paddy water, evaluated after 13 days
# Procedure, shortened: (§2)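 Compounds applied to standing paddy water (3 cm above soil, maintained for the test duration) on 2-leaf-stage plants; visual rating vs controls at 13 days, greenhouse.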
# [25] = tested on: ducksalad (Heteranthera limosa); test: as above; conditions: 250 g ai/ha, Flood, applied to paddy water, evaluated after 13 days
# Procedure, shortened: as §2
# rice (Oryza sativa) = test: as above; conditions: 250 g ai/ha, Flood, applied to paddy water, evaluated after 13 days
# Procedure, shortened: as §2
# [26] = tested on: sedge, umbrella (small-flower umbrella sedge, Cyperus difformis); test: as above; conditions: 250 g ai/ha, Flood, applied to paddy water, evaluated after 13 days
# Procedure, shortened: as §2
# [27] = 31 g ai/ha, postemergence, 0 = no effect, 100 = complete control
# [28] = Postemergence, 125 g ai/ha, 0 is no effect, 100 is complete control
structure (smiles),measurement,setting,value
CC1(C(=O)NC2C=CC(C(=O)O)C2)CN(c2cc(F)cc(Cl)c2)C(=O)O1 (centres unmarked) [Compound 6],Barnyardgrass plant response rating (0-100),[1]; 31 g ai/ha,20
same,Barnyardgrass plant response rating (0 to 100 scale),[1]; 125 g ai/ha,100
same,Blackgrass plant response rating (0-100),[2]; 31 g ai/ha,30
same,Blackgrass plant response rating (0 to 100 scale),[2]; 125 g ai/ha,60
same,Corn plant response rating (0-100),corn (Zea mays) [3]; 31 g ai/ha,30
same,Corn plant response rating (0 to 100 scale),corn (Zea mays) [3]; 125 g ai/ha,90
same,"Foxtail, Green plant response rating (0-100)",[4]; 31 g ai/ha,50
same,"Foxtail, Green plant response rating (0 to 100 scale)",[4]; 125 g ai/ha,100
same,Kochia plant response rating (0-100),kochia (Bassia scoparia) [5]; 31 g ai/ha,100
same,Kochia plant response rating (0 to 100 scale),kochia (Bassia scoparia) [5]; 125 g ai/ha,100
same,"Oat, Wild plant response rating (0-100)",[6]; 31 g ai/ha,30
same,"Oat, Wild plant response rating (0 to 100 scale)",[6]; 125 g ai/ha,90
same,"Amaranth, Palmer plant response rating (0-100)",[7]; 31 g ai/ha,60
same,"Amaranth, Palmer plant response rating (0 to 100 scale)",[7]; 125 g ai/ha,90
same,Ragweed plant response rating (0-100),[8]; 31 g ai/ha,0
same,Ragweed plant response rating (0 to 100 scale),[8]; 125 g ai/ha,40
same,Soybean plant response rating (0-100),soybean (Glycine max) [9]; 31 g ai/ha,50
same,Soybean plant response rating (0 to 100 scale),soybean (Glycine max) [9]; 125 g ai/ha,80
same,Wheat plant response rating (0-100),[10]; 31 g ai/ha,50
same,Wheat plant response rating (0 to 100 scale),[10]; 125 g ai/ha,90
same,Barnyardgrass plant response rating (0-100),[11]; [27],100
same,Barnyardgrass plant response rating (0 to 100 scale),[11]; [28],100
same,Blackgrass plant response rating (0-100),[12]; [27],80
same,Blackgrass plant response rating (0 to 100 scale),[12]; [28],90
same,Corn plant response rating (0-100),corn (Zea mays) [13]; [27],100
same,Corn plant response rating (0 to 100 scale),corn (Zea mays) [13]; [28],100
same,Galium plant response rating (0-100),[14]; [27],80
same,Galium plant response rating (0 to 100 scale),[14]; [28],80
same,"Foxtail, Green plant response rating (0-100)",[15]; [27],90
same,"Foxtail, Green plant response rating (0 to 100 scale)",[15]; [28],90
same,Horseweed plant response rating (0-100),[16]; [27],40
same,Horseweed plant response rating (0 to 100 scale),[16]; [28],90
same,Kochia plant response rating (0-100),kochia (Bassia scoparia) [17]; [27],80
same,Kochia plant response rating (0 to 100 scale),kochia (Bassia scoparia) [17]; [28],80
same,"Oat, Wild plant response rating (0-100)",[18]; [27],90
same,"Oat, Wild plant response rating (0 to 100 scale)",[18]; [28],100
same,"Amaranth, Palmer plant response rating (0-100)",[19]; [27],90
same,"Amaranth, Palmer / Pigweed, Palmer plant response rating (0 to 100 scale)",[19]; [28],90
same,Ragweed plant response rating (0-100),[20]; [27],60
same,Ragweed plant response rating (0 to 100 scale),[20]; [28],80
same,"Ryegrass, Italian plant response rating (0-100)",[21]; [27],80
same,"Ryegrass, Italian plant response rating (0 to 100 scale)",[21]; [28],90
same,Soybean plant response rating (0-100),soybean (Glycine max) [22]; [27],80
same,Soybean plant response rating (0 to 100 scale),soybean (Glycine max) [22]; [28],80
same,Wheat plant response rating (0-100),[23]; [27],90
same,Wheat plant response rating (0 to 100 scale),[23]; [28],90
same,"Plant response rating, Barnyardgrass (0 to 100 scale, 0 is no effect and 100 is complete control)",[24],70
same,"Plant response rating, Ducksalad (0 to 100 scale, 0 is no effect and 100 is complete control)",[25],95
same,"Plant response rating, Rice (0 to 100 scale, 0 is no effect and 100 is complete control)",rice (Oryza sativa),35
same,"Plant response rating, Sedge, Umbrella (0 to 100 scale, 0 is no effect and 100 is complete control)",[26],95
